Patent publication US9120775B2, “Viral polymerase inhibitors” (Biota Scientific Management Pty Ltd, priority 2012, dated 2015)
≈ marks a conversion by molar mass, not a printed value. Read-outs that look alike come from different tables or passages of the source.

Key:
[1] = system: genotype 1b (Con 1) subgenomic replicon cell line; test: HCV replicon assay, genotype 1b, Renilla luciferase reporter; type: cell-based; details: Hepatitis C virus; 72 hours incubation, Renilla luciferase activity
Protocol: A genotype 1b (Con 1) subgenomic replicon cell line based on Blight et al., Science 2000 290: 1972-1974, modified to express a Renilla luciferase reporter gene was used to assess antiviral activity of test compounds. Cell cultures were maintained in a sub-confluent state in DMEM with glutamine, 10% heat-inactivated foetal bovine serum (FBS) and G418 (Geneticin®).
For assay, cells were seeded at a density of 7000 cells/well into 96 well tissue culture trays in culture media lacking G418. Compounds were tested in a three fold dilution series, for example starting from 50 uM. After 72 hours incubation at 37° C. and 5% CO2, Renilla luciferase activity was quantified via the Promega Renilla Luciferase or Renilla-Glo™ Luciferase Assay Systems (Promega corporation. The same method was employed for replicon assays using subgenomic genotype 1a (H77) and 2a (JFH-1) replicon cell lines with a seeding cell density of 5000 cells/well for the 2a cell lines.
The compound concentration that reduced luciferase activity by 50% (EC50) was calculated using non-linear regression.

[2] = Aqueous solubility (laser nephelometry); type: physicochemical; details: for solubility at 30 min: aqueous assay buffer pH 6.5 with 1% DMSO, aqueous buffer, kinetic from dmso stock, pH 6.5, 1% DMSO, 30 minute incubation at 25° C.
Protocol: Test compounds prepared in DMSO were screened in duplicate over a range of concentrations (1.6-100 ug/mL) in different aqueous media (for example a pH6.5 buffers which are relevant to the stomach and upper regions of the small intestine and therefore important when predicting the amount of drug likely to be in solution following oral administration). Test compounds were serially diluted in 100% DMSO ranging from 10-0.16 mg/mL. These titrated DMSO stocks were then further diluted 1:100 with assay buffer and added to test plates (UV Star Griener 384 well plates), maintaining the DMSO concentration at 1%.

1b (BK) NS5BΔ21 = target: T1, 1b (BK) NS5BΔ21 (Hepatitis C virus genotype 1b, UniProt P26663); test: HCV polymerase inhibition assay; type: biochemical
T1 construct: 100 nM 1b (BK) NS5BΔ21
T1 sequence (P26663 2420-2989, stated change not applied): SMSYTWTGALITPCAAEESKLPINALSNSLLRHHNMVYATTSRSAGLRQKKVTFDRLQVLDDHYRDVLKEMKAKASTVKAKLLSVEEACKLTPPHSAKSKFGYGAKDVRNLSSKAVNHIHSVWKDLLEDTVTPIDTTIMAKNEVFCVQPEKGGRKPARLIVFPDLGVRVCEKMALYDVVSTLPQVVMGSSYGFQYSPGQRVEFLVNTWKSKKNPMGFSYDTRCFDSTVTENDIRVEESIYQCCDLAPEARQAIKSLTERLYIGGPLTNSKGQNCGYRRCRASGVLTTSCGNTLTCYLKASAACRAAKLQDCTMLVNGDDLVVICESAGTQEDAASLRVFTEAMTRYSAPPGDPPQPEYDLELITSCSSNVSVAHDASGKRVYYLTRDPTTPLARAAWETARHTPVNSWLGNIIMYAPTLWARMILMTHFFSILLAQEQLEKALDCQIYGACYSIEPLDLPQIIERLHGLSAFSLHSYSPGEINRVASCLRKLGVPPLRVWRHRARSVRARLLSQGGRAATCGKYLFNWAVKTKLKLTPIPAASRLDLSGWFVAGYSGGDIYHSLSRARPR
Protocol: HCV polymerase reactions were carried out using a modified method of Howe et al., Antimicrobial Agents and Chemotherapy 2004 48(12): 4813-4821. Reactions contained a final concentration of, 0.5% DMSO, 100 nM 1b (BK) NS5BΔ21, 20 mM Tris-HCl pH 7.5, 5 mM MgCl2, 5 mM MnCl2, 3 mM DTT, 0.05% BSA, 0.2 U/μL RNasin, 10 μg/mL Poly(rC) template, GTP (at Km) and 0.05 μCi/μL ^33P-GTP in a total reaction volume of 50 μL. Compounds were tested in a three fold dilution series, for example starting from 50 μM. Reactions were initiated with the addition of GTP and terminated after […] with 50 μL ice cold 0.2 M EDTA. Terminated reactions were transferred to DEAE 96-well filter plates, unincorporated nucleotides washed from the filters and 50 μL scintillation fluid added prior to reading on a scintillation counter. The compound concentration that reduced ^33P-GTP incorporation by 50% (IC50) was calculated using non-linear regression.

[3] = read-out: solubility ranges at pH 6.5

SMILES | EC50 [1] [nM] | solubility at 30 min [2, 3] [µg/mL] | IC50 (1b (BK) NS5BΔ21) [nM] | solubility at 30 min ([2]; read-out: Solubility at pH 6.5) [µg/mL] | solubility at pH 6.5 (in words) ([2]; pH 6.5, good solubility when the value is >25 ug/mL)
CNC(=O)c1c2cc(C3CC3)c(N(CC[C@H]3CO[C@@H]3C)S(C)(=O)=O)cc2nn1-c1ccc(Cl)cc1 (single isomer, unassigned) [Compound 33] | < 100 | 50 to 100 (≈ 96.7 to 193 µM) | 100 to 490 |  | 
CNC(=O)c1c2cc(C3CC3)c(N(CC(F)C3COC3)S(C)(=O)=O)cc2nn1-c1ccc(Cl)cc1 (stereo not drawn) [Compound 18, 2-(4-chlorophenyl)-5-cyclopropyl-6-{[2-fluoro-2-(oxetan-3-yl)ethyl](methylsulfonyl)amino}-N-methyl-2H-indazole-3-carboxamide] | 100 to 490 | 50 to 100 (≈ 96 to 192 µM) | < 100 |  | 
CNC(=O)c1c2cc(C3CC3)c(N(CCC3CN(C(C)=O)C3)S(C)(=O)=O)cc2nn1-c1ccc(Cl)cc1 [Compound 8, 6-{[2-(1-acetylazetidin-3-yl)ethyl](methylsulfonyl)amino}-2-(4-chlorophenyl)-5-cyclopropyl-N-methyl-2H-indazole-3-carboxamide] | < 100 | 25 to 50 (≈ 45.9 to 91.9 µM) | 100 to 490 |  | 
CNC(=O)c1c2cc(C3CC3)c(N(CCC3OCC3C)S(C)(=O)=O)cc2nn1-c1ccc(Cl)cc1 (stereo not drawn) [Compound 17, 3,5-anhydro-1-{[2-(4-chlorophenyl)-5-cyclopropyl-3-(methylcarbamoyl)-2H-indazol-6-yl](methylsulfonyl)amino}-1,2,4-trideoxy-4-methylpentitol] | 100 to 490 | 50 to 100 (≈ 96.7 to 193 µM) | 100 to 490 |  | 
CNC(=O)c1c2cc(C3CC3)c(N(CC[C@@H]3CO[C@H]3C)S(C)(=O)=O)cc2nn1-c1ccc(Cl)cc1 (single isomer, unassigned) [Compound 32] | < 100 | 25 to 50 (≈ 48.4 to 96.7 µM) | 100 to 490 |  | 
CNC(=O)c1c2cc(C3CC3)c(N(CCC3(OC)CNC3)S(C)(=O)=O)cc2nn1-c1ccc(Cl)cc1 [Compound 29, 2-(4-chlorophenyl)-5-cyclopropyl-6-[2-(3-methoxyazetidin-3-yl)ethyl-methylsulfonyl-amino]-N-methyl-indazole-3-carboxamide] | 1000 to 10000 | 12.5 to 25 (≈ 23.5 to 47 µM) | 1000 to 10000 |  | 
CNC(=O)c1c2cc(C3CC3)c(N(CC3COC3)S(C)(=O)=O)cc2nn1-c1ccc(Cl)cc1 [Compound 14, 2-(4-chlorophenyl)-5-cyclopropyl-N-methyl-6-[(methylsulfonyl)(oxetan-3-ylmethyl)amino]-2H-indazole-3-carboxamide] | < 100 |  | 100 to 490 | 25 to 50 (≈ 51.1 to 102 µM) | good solubility
CNC(=O)c1c2cc(C3CC3)c(N(CCC3COC3)S(C)(=O)=O)cc2nn1-c1ccc(C)cc1 [Compound 3, 5-Cyclopropyl-N-methyl-2-(4-methylphenyl)-6-{(methylsulfonyl)[2-(oxetan-3-yl)ethyl]amino}-2H-indazole-3-carboxamide] | < 100 | 12.5 to 25 (≈ 25.9 to 51.8 µM) | < 100 |  | 
CNC(=O)c1c2cc(C3CC3)c(N(CCC3(OC)CN(C(C)=O)C3)S(C)(=O)=O)cc2nn1-c1ccc(Cl)cc1 [Compound 30, 6-[2-(1-acetyl-3-methoxy-azetidin-3-yl)ethyl-methylsulfonyl-amino]-2-(4-chlorophenyl)-5-cyclopropyl-N-methyl-indazole-3-carboxamide] | 500 to 990 | 50 to 100 (≈ 87.1 to 174 µM) | 500 to 990 |  | 
CNC(=O)c1c2cc(C3CC3)c(N(CCC3(OC)COC3)S(C)(=O)=O)cc2nn1-c1ccc(Cl)cc1 [Compound 36, 2-(4-chlorophenyl)-5-cyclopropyl-6-[2-(3-methoxyoxetan-3-yl)ethyl-methylsulfonyl-amino]-N-methyl-indazole-3-carboxamide] | 100 to 490 | 50 to 100 (≈ 93.8 to 188 µM) |  |  | 
CNC(=O)c1c2cc(C3CC3)c(N(CCC3(F)COC3)S(C)(=O)=O)cc2nn1-c1ccc(Cl)cc1 [Compound 26, 2-(4-chlorophenyl)-5-cyclopropyl-6-[2-(3-fluorooxetan-3-yl)ethyl-methylsulfonyl-amino]-N-methyl-indazole-3-carboxamide] | < 100 | 25 to 50 (≈ 48 to 96 µM) | < 100 |  | 
